According to PMC7747997 (Plant Communications, 2019):
Each block holds one molecule with its values, some of them ahead of it.

What was measured:
Experiment in all cases: X-ray crystal structure, […] Å
Assay type in all cases: binding
SrUGT76G1 [1] = molecular target: T1, SrUGT76G1 (Stevia rebaudiana, UniProt Q6VAB4); details: complex with UDP (crystals set up with UDP-xylose); acceptor pocket
T1 sequence (Q6VAB4 1-458): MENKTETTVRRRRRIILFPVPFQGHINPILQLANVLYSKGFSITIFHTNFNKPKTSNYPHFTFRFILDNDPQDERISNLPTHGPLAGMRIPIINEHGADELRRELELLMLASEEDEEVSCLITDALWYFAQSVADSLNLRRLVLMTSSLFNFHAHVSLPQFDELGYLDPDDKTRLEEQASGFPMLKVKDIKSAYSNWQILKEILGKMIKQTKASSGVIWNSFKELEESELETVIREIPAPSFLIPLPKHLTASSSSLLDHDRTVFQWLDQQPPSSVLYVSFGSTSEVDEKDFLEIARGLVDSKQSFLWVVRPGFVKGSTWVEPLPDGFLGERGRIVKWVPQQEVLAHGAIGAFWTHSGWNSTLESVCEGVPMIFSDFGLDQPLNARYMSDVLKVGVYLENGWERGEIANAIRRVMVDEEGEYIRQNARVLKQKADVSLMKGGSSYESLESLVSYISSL

SrUGT76G1 [2] = molecular target: T1, SrUGT76G1; details: donor site; crystals set up with UDP-glucose
SrUGT76G1 [3] = molecular target: T1, SrUGT76G1; details: donor site; crystals set up with UDP-xylose and Sb

SMILES: C=C1C[C@@]23CC[C@H]4[C@@](C)(CCC[C@@]4(C)C(=O)O)[C@@H]2CC[C@]1(O[C@@H]1O[C@H](CO)[C@@H](O)[C@H](O)[C@H]1O)C3 [steviolmonoside]
X-ray crystal structure, 2.4 Å (SrUGT76G1 [1]): UDP and steviolmonoside (UDP-Sm-SrUGT76G1)

SMILES: O=c1ccn([C@@H]2O[C@H](COP(=O)(O)OP(=O)(O)O)[C@@H](O)[C@H]2O)c(=O)[nH]1 [UDP]
X-ray crystal structure, 2.6 Å (SrUGT76G1 [2]): we crystallized SrUGT76G1 complexed with UDP (UDP-SrUGT76G1)

X-ray crystal structure, 2.5 Å (SrUGT76G1 [3]): UDP-xylose (UDPX-SrUGT76G1)
SMILES: O=c1ccn([C@@H]2O[C@H](COP(=O)(O)OP(=O)(O)O[C@H]3OC[C@@H](O)[C@H](O)[C@H]3O)[C@@H](O)[C@H]2O)c(=O)[nH]1 [UDP-xylose]
